Entries after “also recorded” stand apart in the source; their conditions may differ. Read-outs that look alike come from different tables or passages of the source.
Key:
[1] = system: vaccinia virus; conditions: BALB/c mice; cited from earlier work
[2] = system: RSV strain A; experiment: UT-15 by subcutaneous micro-infusion pump in RSV-infected BALB/c mice (mortality, body weight); format: in vivo; conditions: for survival percentage: FIG. 7
From the text: The genetically altered mice and control mice were anesthetized with ketamine and xylazine, as described in Peebles, et al., 2001, J. Med. Virol. 63:178–88, which is incorporated herein by reference. The mice were intranasally infected with 10^7 pfu of RSV strain A. American Type Culture Collection, Manassas, Va.
In order to insert a micro-infusion pump into a mouse, the skin of the back, slightly posterior to the scapulae will be shaved and washed with ethanol. Subcutaneous implantation is technically the easiest and least invasive procedure. The usual site for subcutaneous implantation of Azlet pumps in mice is on the back, slightly posterior to the scapulae. Pumps are commercially available at: Alzet Osmotic Pumps, Durect Corporation, P.O. Box 530, Cupertino, Calif. 95015-0530. Absorption of the compound placed in the pump by local capillaries results in systemic administration. For subcutaneous pump implantation, the following steps are performed:
A micro-infusion pump system was inserted into a mouse as previously described in Example 8. After the micro-infusion pump was in place, UT-15 was administered subcutaneously for two weeks starting on the day prior to infection. The BALB/c mice received either different concentrations of UT-15 or water only, as indicated below. BALB/c mice were infected with RSV strain A as described in Example 1. There were 8–10 mice per group. The weight of each mouse was monitored on a daily basis. The mice were put on a scale to measure their weight.
Mice having received micro-infusion pumps received infusion of either water of some concentration of UT-15 for a period of 2 weeks after starting the day prior to RSV infection. […] Also shown are the percentage of body weight for each of the animals on each given day for the other animals either receiving no UT-15 or other concentrations of UT-15.

[3] = cited from earlier work
[4] = in vivo; cited from earlier work
[5] = system: RSV; experiment: Indomethacin in drinking water in RSV-infected BALB/c mice (weight loss curve); format: in vivo
From the text: Genetically altered mice having the BALB/c background were obtained from Charles Rivers Laboratories, 251 Ballardvale Street,. Wilmington, Mass. 01887-1000. Modification to the level of PGI2 was accomplished by introducing indomethacin to the BALB/c mice. Indomethacin is a drug that is used to treat arthritis and other rheumatologic conditions and inhibits the activity of both COX-1 and COX-2 such that the formation of prostanoids, specifically PGI2, are not produced. Indomethacin is given to the mice in their drinking water in order to block the cyclooxygenase enzymes in order to determine the effect of the cyclooxygenase pathway on the immune response to RSV infection. Indomethacin is commercially available from Sigma, Inc. St. Louis, Mo.
As best seen in FIG. 4, mice treated with indomethacin have a much difference weight loss curve. Within the experiment, BALB/c mice were provided water having indomethacin, 30 micrograms/ml.
Female BALB/c mice that are 8–10 weeks of age and that weigh approximately 20 grams were used to determine the amount of weight loss that results from an RSV infection. The BALB/c mice were infected with RSV strain A as described in Example 1. Subsequent to infection, the mice received water in their drinking bottles to drink during the course of an infection. On day 5, the mice started to lose weight and the peak of illness as measured by maximal weight loss occurred on day 9. […] These mice then recovered and were fully back to baseline by day 19 after infection. FIG. 3 is an example of a typical body weight curve that occurs with RSV induced illness. On the Y-axis is the body weight as a percentage of the pre-infection weight. This curve is very reproducible although factors such as the strain of the mouse and the viral load administered can alter the severity and duration of illness.

[6] = indomethacin 30 micrograms/ml in drinking water, FIG. 4

CC(=O)Oc1ccccc1C(=O)O [aspirin]
mortality from vaccinia virus infection vs non-treated mice [1]: marked increase in mortality

CCCCC[C@H](O)CC[C@@H]1[C@H]2Cc3cccc(OCC(=O)O)c3C[C@H]2C[C@H]1O [UT-15]
protection against RSV-induced mortality (percent survival) ([2]; FIG. 7 legend and summary text, 2.0 and 20 ng/kg/min vs none): protects against RSV-induced mortality; also recorded: increase percentage of survival
protection against RSV-induced illness (percent of body weight) ([2]; FIG. 8 legend, 20, 30, 40 ng/kg/min vs none): protects against RSV-induced illness
recovery period of the surviving mice vs mice without UT-15 ([2]; UT-15 2.0 ng/kg/min): the recovery period was quicker
survival percentage ([2]; UT-15 2.0 ng/kg/min subcutaneous for two weeks from the day prior to infection): next best survival percentage
survival percentage ([2]; UT-15 20 ng/kg/min subcutaneous for two weeks from the day prior to infection): best survival percentage
recovery period for body weight ([2]; UT-15 20 ng/kg/min, compared with 0, 30 and 40 ng/kg/min, FIG. 8): quickest recovery period for body weight
safety of administration to patients ([3]; in vivo): safely used

CCCCC[C@H](O)/C=C/[C@@H]1[C@H]2C/C(=C/CCCC(=O)O)O[C@H]2C[C@H]1O [Epoprostenol]
side effects ([3]; in vivo, iv): flushing, headache, chest pain, sweating, flu-like symptoms, nausea, vomiting, and systemic hypotension

CC#CCC(C)[C@H](O)/C=C/[C@@H]1[C@H]2C/C(=C/CCCC(=O)O)C[C@H]2C[C@H]1O (stereo partly drawn) [Iloprost]
share of oral iloprost reaching the systemic circulation [4]: less than 20%
safety of administration to patients ([3]; iloprost: long-term, pulmonary hypertension patients, UT-15: patients treated for another disease): safe

COc1ccc2c(c1)c(CC(=O)O)c(C)n2C(=O)c1ccc(Cl)cc1 [indomethacin]
effect on RSV-induced illness ([5]; FIG. 4 legend): exacerbates and delays recover from RSV-induced illness
day of peak illness (weight loss) [5, 6]: 11 days
recovery of body weight after RSV infection [5, 6]: did not recover their weight
mortality from vaccinia virus infection vs non-treated mice [1]: marked increase in mortality

From US7132453B2, “Method of using prostacyclin to treat respiratory syncytial virus infections” (Vanderbilt University, priority 2002, dated 2006)
